What all share (conditions): 10 mM Tris-HCl, pH 7.4
Assay [1] deals with DNA aptamer or structured DNA GGGACGACGGCACGGGGTTATTCGTTGGTTGCACTGCGCTGGGAGGCAGTCGTCCC
Assay [2] relates to DNA aptamer or structured DNA GGGACGACTAGTGCCTTCGCGCTGTGCGGGAATCCGGTTCTGTCGTCCC
Assay [3] relates to DNA aptamer or structured DNA GGGACGACGGCACGAGGTAATTCGTTGGTTGCACTGCGCTGGGAGGCAGTCGTCCC
The test system of assay [4] is DNA aptamer or structured DNA GGGACGACTACAGGTCGTGCGTTGCTCGAGTTGGTGAGTGTGTCGTCCC
For assay [5], the system named is DNA aptamer or structured DNA CTTACGACAGGTTCTGAGGAATCAACGTCGGTGTAGTTGTCGTAAG
The subject of assay [6] is DNA aptamer or structured DNA GGGACGACTAGTGCCTTCGCGTTGTTCGGGAATCCGGTTCTGTCGTCCC
The subject of assay [7] is DNA aptamer or structured DNA CTTACGACCTAAGGGTCTGGAGTGGTTGTTATACGCTGGTCGTAAG
The subject of assay [8] is DNA aptamer or structured DNA GGGACGACCGTCCGAGTTTTAGGAGTGGTTGCATTGCGCTGGGAAGAGGTCGTCCC
The subject of assay [9] is DNA aptamer or structured DNA CTTACGACTAGGTGGGGGTCGGCGCCGTAGGTGGGGTAGTCGTAAG
Assay [10] concerns DNA aptamer or structured DNA CTTACGACTAGTTCTGAGGAATCAACGTCGGTGTAGTTGTCGTAAG
The subject of assay [11] is DNA aptamer or structured DNA GGGACGACAGCTTGGTTTGGTCGGGGTAGGGTTCGGATGTCGTCCC
Assay [12] has as its system DNA aptamer or structured DNA GGGACGACAAAAATGGAAGCATTGGTTGTTGGTGCTTTGTCGTCCC
Assay [13] has as its system DNA aptamer or structured DNA GGGACGACTGCTTGGGTAGGTCGGGTTTGGGTGCGGCGGTCGTCCC
For assay [14], the system named is DNA aptamer or structured DNA GGGACGACAAAATGGCAGCATTGGTGACGGAGTTGCTTGTCGTCCC
Assay [15] relates to DNA aptamer or structured DNA GGGACGACTAATGGGAGCATTGGTCCACGCAGTGTGCAGTCGTCCC
In assay [16] the test system is DNA aptamer or structured DNA GGGACGACGCGTACCATGGGTAGTTGCACGTCGTCCAAGTCGTCCC
Assay [17] relates to DNA aptamer or structured DNA CTTACGACCAGGCCTACGGAAGCAGCGTCAGCGGGGGGGTCGTAAG
Assay [18] concerns DNA aptamer or structured DNA GGGACGACCCGTAGGGGTACACGCTCTATAGGGGCTGGGTCGTCCC
Assay [19] has as its system DNA aptamer or structured DNA GGGACGACGCGTAGGTCTCCTAGCTGTGCGTCGTTCAAGTCGTCCC
In assay [20] the test system is DNA aptamer or structured DNA GGGACGACATGCGTCGAAAAGACCCCTGAGGGCAGCTGGTCGTCCC
Assay [21] relates to DNA aptamer or structured DNA GGGACGACTACAGGTCGTGCGTCGCTCGAGTTGGTGAGTGTGTCGTCCC
The test system of assay [22] is DNA aptamer or structured DNA GGGACGACTAGTGCCTTCGCGTTGTTCAGGAATCCGGTTCTGTCGTCCC
Assay [23] deals with DNA aptamer or structured DNA GGGACGACCAGGATTCGGTTCTTTGTAAATAGTGCCTCGTTGGTCGTCCC
Assay [24] relates to DNA aptamer or structured DNA GGGACGACGGGGATTCGCGGATTCGGAGAAAAGGGCTCGTACGTCGTCCC
In assay [25] the test system is DNA aptamer or structured DNA GGGACGACTAGTGCCTTCGTGTTGTTCAGGAATCCGGTTCTGTCGTCCC
For assay [26], the system named is DNA aptamer or structured DNA GGGACGACGGCTTAGCAAAGCTAGTAGGGGTCCACGCTGTCGTCCC
Assay [27] deals with DNA aptamer or structured DNA GGGACGACGGGGATTCGGTTCGTCATTTGGCAGTGCCTCGTCTGTCGTCCC
The test system of assay [28] is DNA aptamer or structured DNA GGGACGACCCGTAGGGGTACACGCTCTATGGGGGCTGGGTCGTCCC
For assay [29], the system named is DNA aptamer or structured DNA GGGACGACATCGTAGGGGCACACGCTTAACGGGCTGATGTCGTCCC
Assay [30] concerns DNA aptamer or structured DNA GGGACGACGGGGGGAGTAATGTTTGTGTGGGGGAGCCGGTCGTCCC
Assay [31] deals with DNA aptamer or structured DNA GGGACGACTGGCGCCGGATTCCCTAAGGTACACGGACTGTCGTCCC
Wherever binding call is given: call rule not given here.

Take `CNC(C)Cc1ccc2c(c1)OCO2` (stereo not drawn): the binding call in [1] is “binds”; in [2], “binds”; in [3], “binds”; in [4] it was “binds”; in assay [5] it was “no binding”; in [6], “binds”. In addition, the binding call in assay [7] is listed as “no binding”; in assay [8], “binds”.
For `CN1C2CCC1[C@@H](C(=O)O)[C@@H](OC(=O)c1ccccc1)C2` (stereo partly drawn), the binding call was “no binding” in assay [9], “binds” in [5], “binds” in assay [7] and “no binding” in [10].
With `COC(=O)C(c1ccccc1)C1CCCCN1` (stereo not drawn), the binding call in assay [11] was “binds”; in assay [12] it was “no binding”; in assay [13] it was “binds”; in assay [4] it was “binds”; in [6] it was “no binding”; in assay [14], “no binding”. Moreover, the binding call in [15] is “no binding”.
The Kd is the free concentration of one partner at which half of the binding sites on the other are occupied at equilibrium, for simple one-to-one binding. A low value points to a tighter complex. Consider `CN[C@@H](C)Cc1ccccc1`, for which the dissociation constant Kd in assay [1] is 5.3 µM; in [2] it was 7.5 µM; in assay [3], 6.9 µM; in [4] it was 3.6 µM; in assay [6] it was 5.1 µM; in assay [8] it was 4.9 µM. The binding call in [16] is “no binding”; in assay [17], “binds”; in assay [11], “no binding”; in assay [18] it was “no binding”; in assay [5] it was “no binding”; in [15], “no binding”. In addition, the binding call in assay [19] and in assay [20] was “no binding” in each case.
On to `NCCc1c[nH]c2ccc(O)cc12`, for which the binding call is “no binding” in assay [9]; “binds” in assay [2]; “no binding” in assay [21]; “no binding” in assay [5]; “binds” in assay [6]; “no binding” in assay [22]. For the same compound, the binding call in [23] was “no binding”; in assay [24], “no binding”; in assay [8], “binds”; in assay [25] it was “no binding”; in assay [10], “no binding”.
For the compound `CC(=O)Nc1ccc(O)cc1`, the binding call in assay [16], in assay [17], in assay [9] and in [20] was “no binding” throughout.
As to `CN[C@@H](C)[C@@H](O)c1ccccc1`, the binding call is reported as “no binding” in [1]; “no binding” in assay [17]; “no binding” in [3]; “no binding” in assay [26]; “no binding” in assay [4]; “binds” in assay [6].
Regarding `CN1CC[C@]23c4c5ccc(O)c4O[C@H]2[C@@H](O)C=C[C@H]3[C@H]1C5`, the binding call in assay [1], in assay [17], in [2], in assay [3] and in [8] was “no binding” throughout. The dissociation constant (Kd) in assay [21] turned out to be 3.5 µM; in [27], 9.3 µM; in assay [22] it was 13.8 µM; in assay [23], 1.8 µM; in assay [24], 2.3 µM; in [25] it was 3.5 µM.
For the compound `CC(C)[C@H](NC(=O)c1nn(Cc2ccc(F)cc2)c2ccccc12)C(N)=O`, the binding call in assay [7] was “no binding”.
Turning to `CN(C)CCOC(c1ccccc1)c1ccccc1`, the binding call in [17] is recorded as “no binding”; in [2] it was “no binding”; in [11], “binds”; in assay [27], “no binding”; in assay [18], “no binding”; in [13] it was “no binding”. Moreover, the binding call in [28], in [22], in assay [23], in assay [24], in assay [25] and in [10] was “no binding” each time. For the same compound, the binding call in [29] is “no binding”.
Regarding `CCOC(=O)c1ccc(N)cc1`, the binding call in assay [30], in [17], in assay [12], in assay [26], in assay [28] and in assay [20] was “no binding” in each case.
`CCCC(C(=O)c1ccc2c(c1)OCO2)N1CCCC1` (stereo not drawn): the binding call in [5] was “no binding”.
Take `NCC(O)c1ccc(O)c(O)c1` (stereo not drawn): the binding call in [1] is reported as “no binding”; in assay [21] it was “no binding”; in assay [3] it was “binds”; in assay [27], “no binding”; in assay [4], “no binding”; in assay [6], “no binding”. The binding call in assay [22], in assay [23], in [24], in assay [8] and in assay [25] was “no binding” throughout.
For the compound `CC(N)Cc1ccccc1` (stereo not drawn), the binding call in assay [1] was “binds”; in assay [2], “binds”; in assay [11], “no binding”; in assay [3], “binds”; in assay [13], “no binding”; in [4], “binds”. For the same compound, the binding call was “binds” in assay [6], “no binding” in assay [15] and “binds” in assay [8].
Take `CN1C(=O)CN=C(c2ccccc2)c2cc(Cl)ccc21`: the binding call in assay [30], in assay [9], in [31], in assay [28], in assay [7] and in [20] was “no binding” throughout. Moreover, the binding call in assay [29] is “no binding”.

The values above are taken from the AptaBench aptamer set (doi:10.1093/nar/gkaf219).
